Experimental data published in patent publication US20230382894A1, “CCR4 ANTAGONISTS” (CHEMOCENTRYX, INC., priority 2022, published 2023).

Columns and labels:
CCR4 [1] = molecular target: T1, CCR4 (Homo sapiens, UniProt P51679); assay: CEM cell chemotaxis (migration) assay to CCL22 (MDC) in HBSS buffer with 0.1% BSA; assay type: cell-based; conditions: CEM cells in HBSS with 0.1% BSA; recombinant human CCL22 0.1 nM; 37° C. 60 minutes
T1 construct: CEM Cells Endogenous Express CCR4; endogenous in cells; host or cells: CEM cells
T1 sequence (P51679 1-360): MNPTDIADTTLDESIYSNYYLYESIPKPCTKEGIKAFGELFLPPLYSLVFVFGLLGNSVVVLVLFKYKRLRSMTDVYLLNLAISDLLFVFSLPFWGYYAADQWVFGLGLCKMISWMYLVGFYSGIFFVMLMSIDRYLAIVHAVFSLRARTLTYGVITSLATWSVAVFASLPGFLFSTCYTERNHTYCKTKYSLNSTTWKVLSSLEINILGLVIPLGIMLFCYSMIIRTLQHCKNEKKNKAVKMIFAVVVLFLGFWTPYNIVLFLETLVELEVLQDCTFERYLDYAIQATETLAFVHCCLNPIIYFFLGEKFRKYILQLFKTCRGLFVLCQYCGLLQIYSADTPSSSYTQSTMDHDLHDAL

CCR4 [2] = molecular target: T1, CCR4; assay: CEM cell chemotaxis (migration) assay to CCL22 (MDC) in 100% Fetal Bovine Serum (FBS); assay type: cell-based; conditions: CEM cells in 100% FBS with 1% HEPEs; recombinant human CCL22 0.1 nM; 37° C. 60 minutes
Method in brief: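 Endogenously CCR4-expressing CEM cells in 100% FBS with 1% HEPES were preincubated with serially diluted compound (top final 10 μM) and allowed to migrate through 5 μm polycarbonate membranes toward 0.1 nM human CCL22 (EC50) for 60 min at 37 °C. Migrated cells were quantified by CyQUANT fluorescence.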

| Compound | IC50 (CCR4 [1]) | IC50 (CCR4 [2]) |
| --- | --- | --- |
| C[C@H](Nc1nc(N2CCN(C(=O)[C@@H]3CCC(=O)N3)CC2)ncc1Cl)c1ccc(Cl)cc1Cl [Example 1.253] | > 1000 nM | > 1000 nM |
| C[C@@H](Nc1nc(N2CC[C@H](NC(=O)[C@@H]3CCC(=O)N3)[C@@H](O)C2)ncc1Cl)c1ccc(Cl)cc1Cl [Example 1.254] | > 1000 nM | < 100 nM |
| C[C@@H](Nc1nc(N2CCN(C(=O)[C@H]3CCC(=O)N3)CC2)ncc1Cl)c1ccccn1 [Example 1.256] | > 1000 nM | > 1000 nM |

Next, values leading:

| IC50 (CCR4 [1]) | IC50 (CCR4 [2]) | Compound |
| --- | --- | --- |
| 100 to 1000 nM | > 1000 nM | C[C@@H](Nc1nc(N2CCN(C(=O)[C@H]3CCCN3C3CC(C)(C(=O)O)C3)CC2)ncc1Cl)c1ccc(Cl)cc1Cl (stereo partly shown) [Example 1.152] |
| > 1000 nM | > 1000 nM | C[C@@H](Nc1nc(N2CCN(C3CN[C@H](C(=O)O)C3)CC2)ncc1Cl)c1ccc(Cl)cc1Cl (stereo partly shown) [Example 1.153] |
| < 100 nM | < 100 nM | C[C@@H](Nc1nc(N2CCN(C(=O)[C@@H]3NC(=O)[C@@H]4C[C@@H]43)CC2)ncc1Cl)c1ccc(Cl)cc1Cl [Example 1.251] |
| > 1000 nM | > 1000 nM | C[C@H](Nc1nc(N2CCN(C(=O)[C@H]3CCC(=O)N3)CC2)ncc1Cl)c1ccc(Cl)cc1Cl [Example 1.252] |
| < 100 nM | < 100 nM | Cc1nc(N2CCN(C(=O)[C@H]3CCC(=O)N3)CC2)nc(N[C@H](C)c2cc(F)c(Cl)cc2Cl)c1Cl [Example 1.258] |
